In EPA's ToxValDB 9.5 (doi:10.2903/j.efsa.2005.46r):
Converted amounts (≈) assume the structure as drawn.

Tests used:
Apis mellifera = conditions: acute, mortality
Bibionidae = conditions: chronic/long-term; duration: 28 days; development
Chrysoperla externa = conditions: not reported; mortality
Colinus virginianus = conditions: acute; oral; mortality
Daphnia magna = conditions: chronic/long-term; duration: 21 days; reproduction
Mus musculus = conditions: chronic; duration: 18 months; M; body weight
Oncorhynchus mykiss = conditions: for NOEC: chronic/long-term
Pimephales promelas = conditions: chronic/long-term; duration: 36 days; time to hatch
Tagia sp. = conditions: acute; duration: 14 days; mortality
Typhlodromus pyri = conditions: not reported; mortality

Compound: CNC(=O)/C(=N/OC)c1ccccc1COc1cc(C)ccc1C [Dimoxystrobin]
- NOEC (Anas platyrhynchos; reproductive): 36 mg/kg-day
- LC50 (Anas platyrhynchos; short-term, oral, feed, mortality): > 232 mg/kg-day
- LD50 (Apis mellifera; dermal): > 100 µg/piece
- LD50 (Apis mellifera; duration: 48 hours, oral, unspecified): > 79.4 µg/piece
- NOEC (Bibionidae): 0.01 mg/L
- LEL (Chrysoperla externa): 200 g/ha
- LD50 (Colinus virginianus): > 2000 mg/kg
- NOEC (Daphnia magna): 0.0125 mg/L
- NOAEL (Mus musculus): 4 mg/kg-day
- LC50 (Oncorhynchus mykiss; acute, duration: 96 hours, mortality): 0.0434 µg/mL (≈ 0.133 µM)
- NOEC (Oncorhynchus mykiss; duration: 28 days, mortality): 0.01 mg/L
- NOEC (Oncorhynchus mykiss; duration: 97 days, behavior): 0.000316 mg/L
- NOEC (Pimephales promelas): 0.016 mg/L
- LC50 (Rattus norvegicus; acute, oral, diet, mortality): 5 mg/kg-day
- NOAEL (Rattus norvegicus; short-term, duration: 7 days, clinical chemistry): 4 mg/kg-day
- LC50 (Tagia sp.): 47.3 mg/kg
- LEL (Typhlodromus pyri): 200 g/ha
